Test results from patent US11572590B2, “Methods for evaluating tumor cell spheroids using 3D microfluidic cell culture device” (Dana-Farber Cancer Institute, Inc., priority 2017, dated 2023).
Read-outs that look alike come from different tables or passages of the source.

Tests used:
Test in all cases: SelectScreen Kinase Profiling, single point inhibition and IC50 for off-target kinases
Assay type in all cases: biochemical
off-target kinases [1] = target: off-target kinases (Homo sapiens, UniProt P22694); conditions: PRKACB (PRKAC beta), LanthaScreen Binding
off-target kinases [2] = target: off-target kinases (Homo sapiens, UniProt O00506); conditions: STK25 (YSK1), ZLYTE, ATP Km app
off-target kinases (Homo sapiens, UniProt O00506), sequence (O00506 whole entry): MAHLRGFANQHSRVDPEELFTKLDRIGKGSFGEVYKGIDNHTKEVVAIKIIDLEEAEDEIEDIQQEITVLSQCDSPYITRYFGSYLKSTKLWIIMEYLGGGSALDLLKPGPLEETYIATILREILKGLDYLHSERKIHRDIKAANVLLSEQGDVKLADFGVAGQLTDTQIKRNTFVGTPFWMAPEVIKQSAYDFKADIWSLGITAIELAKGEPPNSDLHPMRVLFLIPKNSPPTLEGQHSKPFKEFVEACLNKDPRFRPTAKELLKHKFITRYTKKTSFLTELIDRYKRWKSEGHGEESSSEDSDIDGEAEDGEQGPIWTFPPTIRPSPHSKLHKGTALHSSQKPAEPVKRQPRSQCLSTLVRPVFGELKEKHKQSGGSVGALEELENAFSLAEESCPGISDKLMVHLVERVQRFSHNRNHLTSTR

off-target kinases [3] = target: T1, off-target kinases (Homo sapiens, UniProt O95835); conditions: LATS1, LanthaScreen Binding
T1 sequence (O95835 1-1130): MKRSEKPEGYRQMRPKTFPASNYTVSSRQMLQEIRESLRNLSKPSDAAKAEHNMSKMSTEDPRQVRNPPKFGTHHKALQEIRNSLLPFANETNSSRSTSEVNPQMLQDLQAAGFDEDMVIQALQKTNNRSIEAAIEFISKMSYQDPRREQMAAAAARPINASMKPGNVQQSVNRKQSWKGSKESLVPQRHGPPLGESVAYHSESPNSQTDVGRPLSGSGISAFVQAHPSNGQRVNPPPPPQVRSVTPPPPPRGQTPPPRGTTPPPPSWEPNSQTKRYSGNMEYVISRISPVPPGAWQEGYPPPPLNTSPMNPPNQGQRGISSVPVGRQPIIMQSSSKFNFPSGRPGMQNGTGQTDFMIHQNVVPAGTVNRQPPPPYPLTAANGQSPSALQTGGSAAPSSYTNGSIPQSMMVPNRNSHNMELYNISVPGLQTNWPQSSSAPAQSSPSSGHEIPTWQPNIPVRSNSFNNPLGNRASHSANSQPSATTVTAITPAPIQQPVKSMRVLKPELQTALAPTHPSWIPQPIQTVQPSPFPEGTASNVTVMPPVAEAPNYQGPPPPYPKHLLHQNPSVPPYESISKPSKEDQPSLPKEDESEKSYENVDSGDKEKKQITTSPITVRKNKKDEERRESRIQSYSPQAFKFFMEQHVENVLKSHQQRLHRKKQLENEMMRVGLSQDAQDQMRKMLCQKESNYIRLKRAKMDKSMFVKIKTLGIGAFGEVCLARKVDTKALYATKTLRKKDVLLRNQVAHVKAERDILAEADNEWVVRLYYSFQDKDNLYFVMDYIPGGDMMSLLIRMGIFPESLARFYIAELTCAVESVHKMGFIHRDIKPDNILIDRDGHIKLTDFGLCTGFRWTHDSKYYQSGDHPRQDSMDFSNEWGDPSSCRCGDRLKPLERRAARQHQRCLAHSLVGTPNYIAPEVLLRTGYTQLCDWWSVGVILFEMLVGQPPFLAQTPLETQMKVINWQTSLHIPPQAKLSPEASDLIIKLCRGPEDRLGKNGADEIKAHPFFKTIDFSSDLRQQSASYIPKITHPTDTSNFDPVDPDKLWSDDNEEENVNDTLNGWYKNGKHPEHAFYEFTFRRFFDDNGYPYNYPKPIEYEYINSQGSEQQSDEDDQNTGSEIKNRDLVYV

off-target kinases [4] = target: off-target kinases (Homo sapiens, UniProt P16234, V561D); conditions: PDGFRA V561D, ATP Km app, ZLYTE
off-target kinases (Homo sapiens, UniProt P16234, V561D), sequence (P16234 24-1089 V561D): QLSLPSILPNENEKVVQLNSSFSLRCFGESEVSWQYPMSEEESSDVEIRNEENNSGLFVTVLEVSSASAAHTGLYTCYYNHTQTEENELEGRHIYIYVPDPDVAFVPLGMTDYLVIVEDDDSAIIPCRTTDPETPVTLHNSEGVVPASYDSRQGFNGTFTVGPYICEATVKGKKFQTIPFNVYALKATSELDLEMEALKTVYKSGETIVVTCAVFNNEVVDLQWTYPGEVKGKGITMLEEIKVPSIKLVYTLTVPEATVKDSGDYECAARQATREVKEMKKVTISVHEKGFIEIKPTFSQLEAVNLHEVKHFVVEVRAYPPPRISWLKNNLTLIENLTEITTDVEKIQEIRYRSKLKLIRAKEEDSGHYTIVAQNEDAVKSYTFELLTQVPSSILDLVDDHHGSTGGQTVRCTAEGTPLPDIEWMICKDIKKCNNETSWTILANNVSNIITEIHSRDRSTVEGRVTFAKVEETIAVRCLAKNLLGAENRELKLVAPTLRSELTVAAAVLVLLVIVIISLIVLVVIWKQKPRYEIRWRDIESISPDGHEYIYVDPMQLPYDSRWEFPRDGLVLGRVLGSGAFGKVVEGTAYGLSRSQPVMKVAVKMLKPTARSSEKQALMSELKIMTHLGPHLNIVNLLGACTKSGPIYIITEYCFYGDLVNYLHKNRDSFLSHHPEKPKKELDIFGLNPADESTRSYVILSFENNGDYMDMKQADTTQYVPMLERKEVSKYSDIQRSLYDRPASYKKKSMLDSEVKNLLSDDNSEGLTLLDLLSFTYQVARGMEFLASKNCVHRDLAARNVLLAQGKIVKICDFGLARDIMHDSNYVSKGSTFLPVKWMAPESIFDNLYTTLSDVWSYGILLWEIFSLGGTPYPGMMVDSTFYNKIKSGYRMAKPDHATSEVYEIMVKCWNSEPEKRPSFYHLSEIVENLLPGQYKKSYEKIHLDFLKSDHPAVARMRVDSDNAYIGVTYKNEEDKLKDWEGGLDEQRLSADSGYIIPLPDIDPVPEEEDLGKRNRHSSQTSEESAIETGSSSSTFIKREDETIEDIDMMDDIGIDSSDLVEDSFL

`N#Cc1cc(-c2ncnc(Nc3ccc(N4CCN(C5COC5)CC4)cc3)n2)ccc1OC1CCOCC1` [Compound 1, 5-(4-((4-(4-(oxetan-3-yl)piperazin-1-yl)phenyl)amino)-1,3,5-triazin-2-yl)-2-((tetrahydro-2H-pyran-4-yl)oxy)benzonitrile] gave an inhibition (off-target kinases [1]; read-out: % Inhibition 1) of 16%, an inhibition (off-target kinases [1]; read-out: % Inhibition 2) of 18% and an inhibition (off-target kinases [1]; read-out: % Inhibition Avg) of 17%. For the same compound, the inhibition (off-target kinases [2]; read-out: % Inhibition 1) was 0%, the inhibition (off-target kinases [2]; read-out: % Inhibition 2) was -4% and the inhibition (off-target kinases [2]; read-out: % Inhibition Avg) was -2%. It also gave an inhibition (off-target kinases [3]; read-out: % Inhibition 1) of -5%, an inhibition (off-target kinases [3]; read-out: % Inhibition 2) of 1% and an inhibition (off-target kinases [3]; read-out: % Inhibition Avg) of -2%. It also gave an inhibition (off-target kinases [4]; read-out: % Inhibition 1) of 85%, an inhibition (off-target kinases [4]; read-out: % Inhibition 2) of 81% and an inhibition (off-target kinases [4]; read-out: % Inhibition Avg) of 83%.
